In patent publication US10323018B2 (Millennium Pharmaceuticals, Inc., priority 2015, dated 2019):
Where two headings read alike, the source gives them in different places.

How the values were obtained:
[1] = biological target: hNAMPT protein (Homo sapiens (Human), UniProt P43490); assay: NAMPT enzyme assay (TR-FRET/HTRF with BodiPY ligand); format: binding; conditions: for inhibition at 1 µM: read-out: Percent Inhibition; for IC50: NAMPT inhibition, IC50 range class
From the text: As discussed above, the invention provides compounds that are useful as inhibitors of the enzyme NAMPT. The NAMPT inhibition of a compound of the invention can be measured using a variety of methods known in the art. For example, the ability of a compound of the invention to inhibit NAMPT enzyme activity can be measured using a homogeneous time resolved fluorescence (HTRF) assay using hNAMPT protein and anti 6His-Tb in buffer treated with a compound of the invention (or control e.g., DMSO) and BodiPY ligand. The TR-FRET signal can be measured using a high throughput microplate reader (e.g., Pherastar). Excitation can be carried out at 320 nm. The percent inhibition value at a single concentration of compound of the invention can be calculated relative to a control treated sample. A concentration response curve can be generated for each compound of the invention and the curve fitted to generate an IC50 value. […] To measure the inhibition of NAMPT activity hNAMPT protein stock and anti 6His-Tb (Cisbio; Cat. No. […]TLB) is diluted to 3× final concentration with assay buffer (50 mM Tris-HCl (pH 7.5), 1 mM DTT, 100 mM NaCl, 10 mM MgCl2, 0.005% Tween 20). To this solution is added a test compound or vehicle control (DMSO) and BodiPY ligand (structure below). The plate is shaken for 1-2 min sealed and incubated for 1 h at rt in the dark. The TR-FRET signal is measured using BMG Pherastar (Lanthascreen protocol on BMG Pherastar). Excitation was carried out at 320 nm, and the ratio of emission of BodiPY (520 nm) to terbium (486 nm) was determined. Concentration response curves are generated by calculating the excitation increase in test compound-treated samples relative to DMSO-treated controls. For the assay method described above, test compound percent inhibition values at a single concentration are calculated relative to control (DMSO) treated samples. Compound concentration response curves are fitted to generate IC50 values from those curves. One skilled in the art will appreciate that these values generated either as percentage inhibition at a single concentration or IC50 values are subject to experimental variation.

[2] = system: PC3 cells; assay: PC3 growth inhibition (Cell-titer glo, 72 hours); format: cell-based; conditions: Homo sapiens, PC-3, 72 h, read-out: Percent Viability, PC3 cells, compound concentration 1.667 μM, 72 hours
Procedure: The invention also provides compounds that inhibit cell growth. The ability of a compound of the invention to inhibit the growth of cells can be measured using a variety of methods known in the art. For example, the ability of a compound of the invention to inhibit the growth of PC3 cells can be measured. PC3 cells can be plated and incubated overnight under CO2. For each measurement, a compound of the invention (or vehicle e.g., DMSO) can be diluted with AIM serum free medium and added to the cell plate. The cell plate can then be incubated for 72 h under CO2. Cell-titer glo solution can be added and the plates can be incubated protected from light and the amount of luminescences can be measured. Concentration response curves can be generated by calculating the luminescence increase in test compound treated samples relative to DMSO-treated controls. Percentage remaining viability values at a single concentration can be measured. Growth inhibition (GI50) or cell viability (LD50) values can be determined from thoses curves. In one embodiment, compounds of the invention have a percent viability in PC3 line @ 1.667 uM of <1%. In one embodiment, compounds of the invention have a percent viability in PC3 line @ 1.667 uM of <2%. In one embodiment, compounds of the invention have a percent viability in PC3 line @ 1.667 uM of <3%. In one embodiment, compounds of the invention have a percent viability in PC3 line @ 1.667 uM of <4%. In one embodiment, compounds of the invention have a percent viability in PC3 line @ 1.667 uM of <5%. In one embodiment, compounds of the invention have a percent viability in PC3 line @ 1.667 uM of <10%. In one embodiment, compounds of the invention have a percent viability in PC3 line @ 1.667 uM of <50%.
To measure PC3 growth inhibition, PC3 cells that were maintained in RPMI1640 growth medium (Life Technologies; Cat. No. 11875) at 37° C. under 5% CO2 are trypsinized and diluted at a density of 8×10^4 cells/ml, 25 ul per well of cells and plated in 384-well black tissue culture plate. The cells are incubated overnight at 37° C. under 5% CO2. For each measurement, a test compound or vehicle DMSO control is diluted with AIM serum free medium and added to the cell plate. The cell plate is incubated for 72 hours at 37° C. under 5% CO2. 25 μl Cell-titer glo solution (Promega; Cat. No. G8462) is added and the cell plates are incubated for 10 minutes protected from light. The luminescence is measured. Concentration response curves are generated by calculating the luminescence increase in test compound-treated samples relative to DMSO-treated controls. Percentage remaining viability values at a single concentration, growth inhibition (GI50) or cell viability (LD50) values are determined from those curves. One skilled in the art will appreciate that these values are subject to experimental variation.

[3] = NAMPT inhibition at compound concentration 1 μM

hNAMPT protein, sequence (P43490 whole entry): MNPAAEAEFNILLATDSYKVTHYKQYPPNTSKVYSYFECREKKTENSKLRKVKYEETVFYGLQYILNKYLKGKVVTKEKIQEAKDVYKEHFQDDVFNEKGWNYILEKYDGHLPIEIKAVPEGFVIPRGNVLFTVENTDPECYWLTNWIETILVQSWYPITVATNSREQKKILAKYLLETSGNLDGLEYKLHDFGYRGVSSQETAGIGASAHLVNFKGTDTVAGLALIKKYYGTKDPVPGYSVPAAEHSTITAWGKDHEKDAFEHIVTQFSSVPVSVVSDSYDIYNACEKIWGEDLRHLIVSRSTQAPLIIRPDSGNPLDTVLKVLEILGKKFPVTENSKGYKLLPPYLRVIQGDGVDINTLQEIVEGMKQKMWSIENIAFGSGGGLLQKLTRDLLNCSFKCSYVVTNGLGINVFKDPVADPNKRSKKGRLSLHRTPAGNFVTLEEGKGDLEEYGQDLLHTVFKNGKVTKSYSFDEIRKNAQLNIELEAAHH

## CCOc1cc(-c2ccnc(C)c2)nc2cc(C(=O)NCCCc3[nH]nnc3C)ccc12 [Compound I-75, 4-ethoxy-2-(2-methylpyridin-4-yl)-N-[3-(4-methyl-1H-1,2,3-triazol-5-yl)propyl]quinoline-7-carboxamide]
[1]; [3]
  inhibition at 1 µM: 94%
[1]
  IC50: 10 to 50 nM
[2]
  viability at 1.667 µM: 1%

## Cc1nc(-c2ccc(Cl)cc2)nc2cc(C(=O)NCCCc3nnc[nH]3)ccc12 [Compound I-63, N-(3-(4H-1,2,4-triazol-3-yl)propyl)-2-(4-chlorophenyl)-4-methylquinazoline-7-carboxamide]
[1]; [3]
  inhibition at 1 µM: 77%
[1]
  IC50: > 100 nM
[2]
  viability at 1.667 µM: 7%

## CCOc1cc(-c2ccc(C)nc2)nc2cc(C(=O)NCCCc3cc[nH]n3)ccc12 [Compound I-111, 4-ethoxy-2-(6-methylpyridin-3-yl)-N-[3-(1H-pyrazol-3-yl)propyl]quinoline-7-carboxamide]
[1]; [3]
  inhibition at 1 µM: 97%
[1]
  IC50: 10 to 50 nM
[2]
  viability at 1.667 µM: 2%

## COCCOc1cc(-c2ccc(F)cc2)nc2cc(C(=O)NCCCc3ncc[nH]3)ccc12 [Compound I-156, 2-(4-fluorophenyl)-N-[3-(1H-imidazol-2-yl)propyl]-4-(2-methoxyethoxy)quinoline-7-carboxamide]
[1]; [3]
  inhibition at 1 µM: 100%
[1]
  IC50: < 10 nM
[2]
  viability at 1.667 µM: 2%

## CC(C)Oc1cc(-c2ccc(F)cc2)nc2cc(C(=O)NCCCc3ncc[nH]3)ccc12 [Compound I-17, 2-(4-fluorophenyl)-N-[3-(1H-imidazol-2-yl)propyl]-4-isopropoxyquinoline-7-carboxamide]
[1]; [3]
  inhibition at 1 µM: 99%
[1]
  IC50: < 10 nM
[2]
  viability at 1.667 µM: 0%

## CCSc1nc(-c2ccc(F)cc2)nc2cc(C(=O)NCCCc3ncc[nH]3)ccc12 [Compound I-27, 4-(ethylsulfanyl)-2-(4-fluorophenyl)-N-[3-(1H-imidazol-2-yl)propyl]quinazoline-7-carboxamide]
[1]
  IC50: < 10 nM
  inhibition at 1 µM: 98%
[2]
  viability at 1.667 µM: 1%

## CCOc1cc(N2CCCC2)nc2cc(C(=O)NCCCc3ncc[nH]3)ccc12 [Compound I-62, 4-Ethoxy-N-[3-(1H-imidazol-2-yl)propyl]-2-(pyrrolidin-1-yl)quinoline-7-carboxamide]
[1]; [3]
  inhibition at 1 µM: 95%
[1]
  IC50: 50 to 100 nM
[2]
  viability at 1.667 µM: 2%

## CCOc1cc(-c2ccn(C)c(=O)c2)nc2cc(C(=O)NCCCc3nnc[nH]3)ccc12 [Compound I-118, 4-ethoxy-2-(1-methyl-2-oxo-1,2-dihydropyridin-4-yl)-N-[3-(4H-1,2,4-triazol-3-yl)propyl]quinoline-7-carboxamide]
[1]; [3]
  inhibition at 1 µM: 99%
[1]
  IC50: 10 to 50 nM
[2]
  viability at 1.667 µM: 2%

## CCOc1cc(-c2ccc(C)nc2)nc2cc(C(=O)NCCc3nnc[nH]3)ccc12 [Compound I-168, 4-ethoxy-2-(6-methylpyridin-3-yl)-N-[2-(4H-1,2,4-triazol-3-yl)ethyl]quinoline-7-carboxamide]
[1]; [3]
  inhibition at 1 µM: 95%
[1]
  IC50: 10 to 50 nM
[2]
  viability at 1.667 µM: 2%

## CCOc1cc(-c2ccnc(C(F)(F)F)c2)nc2cc(C(=O)NCCCc3nnc[nH]3)ccc12 [Compound I-218, 4-ethoxy-N-[3-(4H-1,2,4-triazol-3-yl)propyl]-2-[2-(trifluoromethyl)pyridin-4-yl]quinoline-7-carboxamide]
[1]; [3]
  inhibition at 1 µM: 93%
[1]
  IC50: 50 to 100 nM
[2]
  viability at 1.667 µM: 2%

## COCCOc1cc(-c2ccc(F)cc2)nc2cc(C(=O)NCCCc3ncn[nH]3)ccc12 [Compound I-124, N-(3-(4H-1,2,4-triazol-3-yl)propyl)-2-(4-fluorophenyl)-4-(2-methoxyethoxy)quinoline-7-carboxamide]
[1]; [3]
  inhibition at 1 µM: 92%
[1]
  IC50: 50 to 100 nM
[2]
  viability at 1.667 µM: 2%

## CCOc1cc(-c2ccc(F)cc2OC)nc2cc(C(=O)NCCCc3cnn[nH]3)ccc12 [Compound I-121, 4-ethoxy-2-(4-fluoro-2-methoxyphenyl)-N-[3-(1H-1,2,3-triazol-5-yl)propyl]quinoline-7-carboxamide]
[1]; [3]
  inhibition at 1 µM: > 99%
[1]
  IC50: < 10 nM
[2]
  viability at 1.667 µM: 2%

## CCOc1cc(-c2ccc(OC)nc2)nc2cc(C(=O)NCCCc3ccn[nH]3)ccc12 [Compound I-154, 4-ethoxy-2-(6-methoxypyridin-3-yl)-N-[3-(1H-pyrazol-5-yl)propyl]quinoline-7-carboxamide]
[1]; [3]
  inhibition at 1 µM: 96%
[1]
  IC50: 10 to 50 nM
[2]
  viability at 1.667 µM: 3%

## CCOc1cc(-c2ccc(=O)n(C)c2)nc2cc(C(=O)NCCCc3cnn[nH]3)ccc12 [Compound I-96, 4-ethoxy-2-(1-methyl-6-oxo-1,6-dihydropyridin-3-yl)-N-[3-(1H-1,2,3-triazol-5-yl)propyl]quinoline-7-carboxamide]
[1]; [3]
  inhibition at 1 µM: > 99%
[1]
  IC50: < 10 nM
[2]
  viability at 1.667 µM: 1%

## CCOc1cc(-c2ccc(OC)nc2)nc2cc(C(=O)NCCc3[nH]nnc3C)ccc12 [Compound I-88, 4-ethoxy-2-(6-methoxypyridin-3-yl)-N-[2-(4-methyl-1H-1,2,3-triazol-5-yl)ethyl]quinoline-7-carboxamide]
[1]; [3]
  inhibition at 1 µM: 97%
[1]
  IC50: 10 to 50 nM
[2]
  viability at 1.667 µM: 1%

## CCOc1cc(-c2ccnc(OC)c2)nc2cc(C(=O)NCCCc3nnc[nH]3)ccc12 [Compound I-114, 4-ethoxy-2-(2-methoxypyridin-4-yl)-N-[3-(4H-1,2,4-triazol-3-yl)propyl]quinoline-7-carboxamide]
[1]; [3]
  inhibition at 1 µM: 97%
[1]
  IC50: 10 to 50 nM
[2]
  viability at 1.667 µM: 2%

## CCCc1nc(-c2ccc(Cl)cc2)nc2cc(C(=O)NCc3nc4ccncc4[nH]3)ccc12 [Compound I-9, 2-(4-chlorophenyl)-N-(3H-imidazo[4,5-c]pyridin-2-ylmethyl)-4-propylquinazoline-7-carboxamide]
[1]; [3]
  inhibition at 1 µM: 93%
[1]
  IC50: < 10 nM
[2]
  viability at 1.667 µM: 1%

## Cc1cc(-c2cc(-c3ccc(F)cc3)c3ccc(C(=O)NCCCc4nnc[nH]4)cc3n2)ccn1 [Compound I-157, N-(3-(4H-1,2,4-triazol-3-yl)propyl)-4-(4-fluorophenyl)-2-(2-methylpyridin-4-yl)quinoline-7-carboxamide]
[1]; [3]
  inhibition at 1 µM: 89%
[1]
  IC50: 50 to 100 nM
[2]
  viability at 1.667 µM: 5%

## CCOc1cc(-c2ccc(F)cc2)nc2cc(C(=O)NCc3ccc4ncnn4c3)ccc12 [Compound I-84, 4-ethoxy-2-(4-fluorophenyl)-N-([1,2,4]triazolo[1,5-a]pyridin-6-ylmethyl)quinoline-7-carboxamide]
[1]; [3]
  inhibition at 1 µM: 99%
[1]
  IC50: < 10 nM
[2]
  viability at 1.667 µM: 1%

## CCOc1cc(-c2ccc(F)cc2)nc2cc(C(=O)NCCCc3cncnc3)ccc12 [Compound I-228, 4-ethoxy-2-(4-fluorophenyl)-N-[3-(pyrimidin-5-yl)propyl]quinoline-7-carboxamide]
[1]; [3]
  inhibition at 1 µM: 94%
[1]
  IC50: < 10 nM
[2]
  viability at 1.667 µM: 5%
